System: MIA PaCa-2 cells
Test: Bru-seq analysis for nascent RNA synthesis (log2FC of genes, GSEA gene sets)
Format: cell-based, human
Settings: 4 h
[1] = PYEON_CANCER_HEAD_AND_NECK_VS_CERVICAL_UP, C2, downregulated
[2] = RIGGINS_TAMOXIFEN_RESISTANCE_DN, C2, downregulated
[3] = SCHLOSSER_MYC_TARGETS_AND_SERUM_RESPONSE_DN, C2, downregulated
[4] = SENGUPTA_NASOPHARYNGEAL_CARCINOMA_UP, C2, downregulated
[5] = SENGUPTA_NASOPHARYNGEAL_CARCINOMA_WITH_LMP1_UP, C2, downregulated
[6] = SHEN_SMARCA2_TARGETS_UP, C2, downregulated
[7] = TAKEDA_TARGETS_OF_NUP98_HOXA9_FUSION_3D_UP, C2, downregulated
[8] = TAKEDA_TARGETS_OF_NUP98_HOXA9_FUSION_6HR_UP, C2, downregulated
[9] = TCANNTGAY_SREBP1_01, TFBT, upregulated
[10] = TGANNYRGCA_TCF11MAFG_01, TFBT, upregulated
[11] = TTTNNANAGCYR_UNKNOWN, TFBT, upregulated
[12] = YANG_BREAST_CANCER_ESR1_LASER_DN, C2, downregulated
[13] = ZHANG_BREAST_CANCER_PROGENITORS_UP, C2, downregulated
[14] = ZHANG_TLX_TARGETS_36HR_DN, C2, downregulated
[15] = ZHANG_TLX_TARGETS_DN, C2, downregulated
[16] = ZHENG_BOUND_BY_FOXP3, C2, downregulated
[17] = top upregulated noncoding genes, MIA PaCa-2 cells
[18] = top upregulated protein-coding genes, MIA PaCa-2 cells

## Cc1cc(NC(=O)c2cnc(N3CCNCC3)cn2)c2ncccc2c1 [J28, N-(6-methylquinolin-8-yl)-5-(piperazin-1-yl)pyrazine-2-carboxamide]
OCT1Q5_01, TFBT, upregulated
  ES: 0.383
  NES: 1.568
PEA3_Q6, TFBT, upregulated
  ES: 0.389
  NES: 1.645
PHLDB2, downregulated protein-coding gene
  log2FC: −0.93
PTX3, downregulated protein-coding gene
  log2FC: −1.04
[1]
  ES: −0.405
  NES: −1.998
[2]
  ES: −0.420
  NES: −1.996
RNVU1-6, downregulated noncoding gene
  log2FC: −1.29
[3]
  ES: −0.485
  NES: −1.909
[4]
  ES: −0.477
  NES: −2.454
[5]
  ES: −0.503
  NES: −2.612
[6]
  ES: −0.402
  NES: −2.248
SLCO1B3, downregulated protein-coding gene
  log2FC: −0.96
SPTY2D1-AS1, downregulated protein-coding gene
  log2FC: −0.93
SREBP1_01, TFBT, upregulated
  ES: 0.417
  NES: 1.757
SREBP1_Q6, TFBT, upregulated
  ES: 0.386
  NES: 1.611
SRF_01, TFBT, upregulated
  ES: 0.541
  NES: 1.708
SRRM1P2, downregulated noncoding gene
  log2FC: −0.97
[7]
  ES: −0.469
  NES: −1.940
[8]
  ES: −0.667
  NES: −2.252
[9]
  ES: 0.399
  NES: 1.843
TEX15, downregulated protein-coding gene
  log2FC: −0.95
[10]
  ES: 0.359
  NES: 1.552
[11]
  ES: 0.502
  NES: 1.859
TXNRD3NB, downregulated protein-coding gene
  log2FC: −0.86
WWTR1-IT1, downregulated noncoding gene
  log2FC: −1.14
[12]
  ES: −0.521
  NES: −1.924
[13]
  ES: −0.342
  NES: −1.914
[14]
  ES: −0.518
  NES: −2.618
[15]
  ES: −0.457
  NES: −2.032
[16]
  ES: −0.362
  NES: −1.929
ZNF37A, downregulated protein-coding gene
  log2FC: −0.93
ZNF816, downregulated protein-coding gene
  log2FC: −1.58
[17]
  log2FC AC027307.3: 1.20
  log2FC AC068473.5: 0.84
  log2FC AC090826.2: 0.90
  log2FC AC092279.1: 0.84
  log2FC AC106886.2: 1.10
  log2FC AC141586.1: 1.01
  log2FC AC239868.4: 0.91
  log2FC AL049543.1: 1.21
  log2FC AP001065.1: 0.95
  log2FC KRT18P31: 0.89
  log2FC PCBP2P1: 0.84
  log2FC RN7SL16P: 1.19
  log2FC RPS16P5: 0.97
  log2FC SLC2A1-AS1: 1.22
  log2FC SNHG20: 1.06
  log2FC SNORA3B: 0.88
  log2FC SNORA65: 1.28
  log2FC SNORA73B: 0.91
  log2FC SNORA74D: 1.76
  log2FC SNORD15A: 0.86
  log2FC SNORD15B: 0.90
  log2FC SNORD17: 1.17
  log2FC ST7-AS1: 0.95
  log2FC SYPL1P2: 0.85
  log2FC TDRKH-AS1: 0.90
[18]
  log2FC ABHD14B: 1.28
  log2FC AC099811.2: 1.35
  log2FC APRT: 1.39
  log2FC COMMD5: 1.31
  log2FC DBP: 1.90
  log2FC DDX28: 1.46
  log2FC DHCR7: 1.44
  log2FC DOLK: 1.70
  log2FC FASN: 1.28
  log2FC H2AFX: 1.36
  log2FC HIST1H1D: 1.36
  log2FC HIST1H2BF: 1.63
  log2FC HIST1H3B: 1.82
  log2FC HIST1H3C: 1.45
  log2FC HIST1H3I: 1.28
  log2FC INSIG1: 1.65
  log2FC MVK: 1.37
  log2FC ORMDL3: 1.39
  log2FC PCYT2: 2.03
  log2FC POP7: 1.30
  log2FC RNF26: 1.71
  log2FC SCD: 1.67
  log2FC SDR39U1: 1.67
